Reference: US10611733B2, “Quinazolinone analogs and use of quinazolinone analogs for treating or preventing certain viral infections” (priority 2011, dated 2020)
Like-named read-outs stand apart in the source and are kept apart here.

How the values were obtained:
[1] = target: HCV Con1b (Replicon); assay: HCV Con1b (Replicon) Luciferase end-point; assay type: cell-based, Hepatitis C Virus; settings: for CC50: read-out: TC50 (the source's name)
[2] = system: JEV; assay: JEV cell based virus CPE reduction assay; set-up: species or system Japanese Encephalitis Virus; settings: for CC50: read-out: TC50 (the source's name)
Description: (§1) The use of N-(2,3-dihydro-1H-inden-5-yl)-2-(4-oxo-3-phenyl-3,4-dihydroquinazolin-2-yl)thio) acetamide, a compound employed according to the present disclosure, for treating West Nile Virus has been disclosed. For example, please see Chung et al. A Cell Based Assay for the Identification of Lead Compounds with Anti-Viral Activity Against West Nile Virus, Probe Reports from the NIH Molecular Libraries Program[Internet]. Bethesda (Md.): National Center for Biotechnology Information (US); 2010-2010 Feb. 27 [updated 2010 Oct. 4], PMID: 21433390 [PubMed].

[3] = system: HCV Con 1b (Replicon); assay: HCV Con 1b (Replicon) RNA end-point; assay type: cell-based, Hepatitis C Virus
Procedure: (§2) The reduction in HCV was determined with two assays using viral RNA endpoints. […] This cell line expresses a subgenomic section of the HCV genome containing NS2a, NS2b, NS3a, NS3b, NS4a, NS4b, NS5a and NS5b.

[4] = HCV Con1b (Replicon) Luciferase end-point; assay type: cell-based, Hepatitis C Virus; settings: HCV Con1b subgenomic replicon cell line, read-out: TC50 (the source's name)
[5] = JEV cell based virus CPE reduction assay; set-up: species or system Japanese Encephalitis Virus; settings: read-out: TC50 (the source's name)
Description: as §1

[6] = HCV Con 1b (Replicon) RNA end-point; assay type: cell-based, Hepatitis C Virus; settings: HCV Con 1b subgenomic replicon cell line; HCV Con 1b replicon, RNA end-point; read-out: TC50 (the source's name)
Procedure: as §2

[7] = WNV antiviral assay; assay type: cell-based, West Nile Virus; settings: read-out: TC50 (the source's name)
Description: as §1

[8] = system: WNV; assay: WNV antiviral assay; assay type: cell-based, West Nile Virus; settings: West Nile virus
Description: as §1

COc1cccc2c(=O)n(-c3ccccc3)c(SCC(=O)Nc3ccc4c(c3)CCC4)nc12 [Example C17, N-indan-5-yl-2-(8-methoxy-4-oxo-3-phenyl(3-hydroquinazolin-2-ylthio))acetamide]
IC50 [1]: 1 to 5 µM
CC50 [1]: ≥ 100 µM
IC50 [2]: 5 to 25 µM
CC50 [2]: ≥ 100 µM

O=C(CSc1nc2cccc(F)c2c(=O)n1-c1ccccc1)Nc1ccc2c(c1)CCC2 [Example C15, 2-(5-fluoro-4-oxo-3-phenyl(3-hydroquinazolin-2-ylthio))-N-indan-5-ylacetamide]
IC50 [2]: 5 to 25 µM
CC50 [2]: ≥ 100 µM
IC50 ([3]; HCV Con 1b replicon, RNA end-point): 1 to 5 µM
CC50 ([3]; HCV Con 1b replicon, RNA end-point, read-out: TC50 (the source's name)): ≥ 100 µM

Cc1csc(NC(=O)CSc2nc3ccccc3c(=O)n2-c2ccc(Cl)c(Cl)c2)n1 [Example C24, 2-[3-(3,4-dichlorophenyl)-4-oxo(3-hydroquinazolin-2-ylthio)]-N-(4-methyl(1,3-thiazol-2-yl))acetamide]
IC50 [1]: 1 to 5 µM
CC50 [1]: ≥ 100 µM
IC50 [2]: 5 to 25 µM
CC50 [2]: ≥ 100 µM

Cc1csc(NC(=O)CSc2nc3ccccc3c(=O)n2-c2ccc(Cl)c(Cl)c2)n1 [Example C8, 2-(3-(3,4-dichlorophenyl)-4-oxo-3,4-dihydroquinazolin-2-ylthio)-N-(4-methylthiazol-2-yl)acetamide]
CC50 [4]: ≥ 100 µM
IC50 ([1]; Hepatitis C virus): 1 to 5 µM
IC50 ([2]; Japanese encephalitis virus): 5 to 25 µM
CC50 [5]: ≥ 100 µM

O=C(CSc1nc2ccccc2c(=O)n1-c1ccccc1)Nc1ccc2c(c1)CCC2 [Example C1]
CC50 [6]: ≥ 100 µM
IC50 ([3]; Hepatitis C virus, HCV Con 1b replicon, RNA end-point): 5 to 25 µM
activity against Hepatitis C Virus ([3]; text statement referring to Table 1): activity was observed
CC50 [7]: ≥ 100 µM
IC50 [8]: 5 to 25 µM
